“Also recorded” adds a separate entry of the source. Like-named read-outs stand apart in the source and are kept apart here.

One assay has as its system C. neoformans ATCC 90113. Put plainly: C. neoformans growth inhibition (CLSI M27-A3 broth microdilution). Format: cell-based. The conditions noted are these: for MIC: Cryptococcus neoformans, ATCC90113, 72 h. The source says:
(§1) Sec14p is reported to be essential for virulence as well as for growth in C. neoformans. The S. cerevisiae and C. neoformans proteins show 53% similarity by pair-wise alignment with higher conservation of the residues in the lipid-binding pocket (S2 Fig). Furthermore, three of the four sites identified to be critical for NGx04 sensitivity, are conserved (S2 Fig). In combination with the current high unmet medical need related to Cryptococcus infections we prioritized testing of NGx04 and 18 related ergoline scaffold analogs against this pathogen. Two clinical isolates of C. neoformans (ATCC 36556 and ATCC 90113) were plated in triplicates on increasing drug concentrations and MIC-2 (50% inhibition) and MIC-0 (no visible fungal growth) concentrations were scored after 72 hrs. (Fig 5).
(§2) C. neoformans strains ATCC 36556, a lung isolate, and ATCC 90113, a cerebrospinal fluid isolate, were purchased from ATCC, Manassas, VA (USA). BPY22 was obtained from.
(§3) Antifungal susceptibility testing was conducted according to the Clinical and Laboratory Standards Institute (CLSI) guidelines for broth microdilution assay M27-A3. Testing was performed in RPMI-1640 (HyClone) with 2.05 mM glutamine, phenol red, without bicarbonate and buffered with 0.165 mol/l 3-(N-morpholino) propanesulfonic acid (MOPS). The medium was adjusted to pH 7.0 and sterilized with a 0.2 μm filter. Two endpoints were recorded: MIC-0 (complete inhibition with no visible fungal growth) and MIC-2 (prominent inhibition corresponding to >50% growth reduction).
(In general: Broth dilution looks for growth in wells or tubes with falling amounts of substance.)

For the next assay, the system named is C. neoformans ATCC 36556. The assay is described as above. Conditions: for MIC: Cryptococcus neoformans, ATCC36556, 72 h; for C. neoformans growth inhibition (in words): clinical isolates ATCC 36556 and ATCC 90113, tested dose range. Format: cell-based.
Excerpt: as §1, §2, §3

Setting [1] is: 50% inhibition, 72 h, triplicate values printed singly, read-out: ATCC90113 MIC-2.
The mark [2] stands for this setting: no visible fungal growth, 72 h, triplicate values printed singly, read-out: ATCC90113 MIC-0.
Where [3] appears, read: 50% inhibition, 72 h, triplicate values printed singly.
The mark [4] stands for this setting: 50% inhibition, 72 h, triplicate values printed singly, read-out: ATCC36556 MIC-2.
Where [5] appears, read: no visible fungal growth, 72 h, triplicate values printed singly, read-out: ATCC36556 MIC-0.
The mark [6] stands for this setting: no visible fungal growth, 72 h, triplicate values printed singly.

Consider `COC(=O)[C@@H]1C[C@@H]2c3cc(OCc4ccccc4)cc4c3[C@H](C[C@H]2N(C)C1)CN4C(C)=O` [NGx08], for which the MIC in the assay with C. neoformans ATCC 90113 (setting [1]) was over 50 µg/mL; in the assay on C. neoformans ATCC 90113 (setting [2]), over 50 µg/mL; with C. neoformans ATCC 36556 (setting [4]), 50 µg/mL; with C. neoformans ATCC 36556 (setting [5]), over 50 µg/mL. Further, in the assay on C. neoformans ATCC 36556 (setting [3]), the “ATCC36556 MIC-2” value came to 25 µg/mL.

`COC(=O)[C@@H]1C[C@@H]2c3cc(F)cc4c3[C@H](C[C@H]2N(C)C1)CN4C(C)=O` [NGx06]: the minimal inhibitory concentration (MIC) is over 50 µg/mL in the assay with C. neoformans ATCC 90113 (setting [1]), over 50 µg/mL with C. neoformans ATCC 90113 (setting [2]), 50 µg/mL in the assay with C. neoformans ATCC 36556 (setting [4]) and over 50 µg/mL in the assay on C. neoformans ATCC 36556 (setting [5]).

As to `CN1C[C@H](C(=O)Nc2ccccc2)C[C@@H]2c3c(O)ccc4c3[C@H](C[C@H]21)CN4C(=O)OC(C)(C)C` [NGx07], the minimal inhibitory concentration (MIC) in the assay on C. neoformans ATCC 90113 (setting [1]) is 13 µg/mL; in the assay with C. neoformans ATCC 90113 (setting [2]), over 50 µg/mL; in the assay with C. neoformans ATCC 36556 (setting [4]) it was 6.3 µg/mL; in the assay with C. neoformans ATCC 36556 (setting [5]) it was over 50 µg/mL. For the same molecule, the “C. neoformans growth inhibition (in words)” value in the assay with C. neoformans ATCC 36556 is “inhibit C. neoformans growth; also recorded: scored anti-fungal activity”.

`COC(=O)C1CC2c3cccc4c3C(CC2N(C)C1)CN4C=O` (centres unmarked) [NGx17]: the MIC in the assay on C. neoformans ATCC 90113 (setting [1]) was over 50 µg/mL; in the assay on C. neoformans ATCC 90113 (setting [2]), over 50 µg/mL; in the assay with C. neoformans ATCC 36556 (setting [4]), 50 µg/mL; in the assay with C. neoformans ATCC 36556 (setting [5]), over 50 µg/mL. Besides, the “ATCC36556 MIC-2” value with C. neoformans ATCC 36556 (setting [3]) is over 50 µg/mL.

For the molecule `COC(=O)[C@@H]1C[C@@H]2c3cccc4c3[C@H](C[C@H]2N(C)C1)CN4C(=O)OCC(Cl)(Cl)Cl` [NGx16], the MIC is 13 µg/mL in the assay on C. neoformans ATCC 90113 (setting [1]), 50 µg/mL with C. neoformans ATCC 90113 (setting [2]), 13 µg/mL with C. neoformans ATCC 36556 (setting [4]) and 50 µg/mL in the assay with C. neoformans ATCC 36556 (setting [5]). The “ATCC90113 MIC-0” value in the assay on C. neoformans ATCC 90113 (setting [6]) was over 50 µg/mL. In addition, the “C. neoformans growth inhibition (in words)” value with C. neoformans ATCC 36556 is reported as “inhibit C. neoformans growth”. Besides, the “ATCC36556 MIC-0” value in the assay on C. neoformans ATCC 36556 (setting [6]) is over 50 µg/mL.

As to `COC(=O)C1CC2c3cccc4c3C(CC2N(C(C)C)C1)CN4C(=O)OC(C)(C)C` (centres unmarked) [NGx15], the minimum inhibitory concentration (MIC) with C. neoformans ATCC 90113 (setting [1]), with C. neoformans ATCC 90113 (setting [2]), in the assay on C. neoformans ATCC 36556 (setting [4]) and with C. neoformans ATCC 36556 (setting [5]) was over 50 µg/mL each time.

Consider `COC(=O)[C@@H]1C[C@@H]2c3cc(O)cc4c3[C@H](C[C@H]2N(C)C1)CN4C(C)=O` [NGx02], for which the MIC with C. neoformans ATCC 90113 (setting [1]), with C. neoformans ATCC 90113 (setting [2]), with C. neoformans ATCC 36556 (setting [4]) and in the assay on C. neoformans ATCC 36556 (setting [5]) was over 50 µg/mL throughout.

Turning to `CN1C[C@H](C(=O)O)C[C@@H]2c3cccc4c3[C@H](C[C@H]21)CN4C(=O)OC(C)(C)C` [NGx01], the MIC in the assay with C. neoformans ATCC 90113 (read-out: ATCC90113 MIC-0), in the assay on C. neoformans ATCC 90113 (read-out: ATCC90113 MIC-2), with C. neoformans ATCC 36556 (read-out: ATCC36556 MIC-0) and in the assay on C. neoformans ATCC 36556 (read-out: ATCC36556 MIC-2) was over 50 µg/mL in each case.

As for `CN1CC(C(=O)O)CC2c3cccc4c3C(CC21)CN4C(=O)OCc1ccccc1` (centres unmarked) [NGx18], the minimum inhibitory concentration (MIC) in the assay with C. neoformans ATCC 90113 (setting [1]), with C. neoformans ATCC 90113 (setting [2]), in the assay with C. neoformans ATCC 36556 (setting [4]) and in the assay on C. neoformans ATCC 36556 (setting [5]) was over 50 µg/mL in each case.

`COC(=O)C1CC2c3cc(O)cc4c3C(CC2N(C)C1)CN4C(C)=O` (centres unmarked) [NGx12]: the MIC in the assay with C. neoformans ATCC 90113 (setting [1]) is over 50 µg/mL; in the assay on C. neoformans ATCC 90113 (setting [2]) it was over 50 µg/mL; in the assay on C. neoformans ATCC 36556 (setting [4]), 25 µg/mL; in the assay with C. neoformans ATCC 36556 (setting [5]), over 50 µg/mL. Also, the “ATCC36556 MIC-2” value with C. neoformans ATCC 36556 (setting [3]) turned out to be 50 µg/mL.

As to `COC(=O)[C@@H]1C[C@@H]2c3cc([N+](=O)[O-])cc4c3[C@H](C[C@H]2N(C)C1)CN4C(C)=O` [NGx11], the MIC was over 50 µg/mL in the assay with C. neoformans ATCC 90113 (setting [1]), over 50 µg/mL in the assay on C. neoformans ATCC 90113 (setting [2]), 25 µg/mL in the assay with C. neoformans ATCC 36556 (setting [4]) and over 50 µg/mL with C. neoformans ATCC 36556 (setting [5]).

Turning to `COC(=O)[C@@H]1C[C@@H]2c3cc([N+](=O)[O-])cc4c3[C@@H](CN4)C[C@H]2N(C)C1` [NGx14], the minimal inhibitory concentration (MIC) was over 50 µg/mL with C. neoformans ATCC 90113 (setting [1]), over 50 µg/mL in the assay with C. neoformans ATCC 90113 (setting [2]), 50 µg/mL in the assay on C. neoformans ATCC 36556 (setting [4]) and over 50 µg/mL with C. neoformans ATCC 36556 (setting [5]).

For `COC(=O)[C@@H]1C[C@@H]2c3c([N+](=O)[O-])ccc4c3[C@H](C[C@H]2N(C)C1)CN4C(=O)OCC(Cl)(Cl)Cl` [NGx19], the “ATCC90113 MIC-2” value in the assay on C. neoformans ATCC 90113 (setting [3]) was 6.3 µg/mL. The MIC with C. neoformans ATCC 90113 (setting [1]) is 6.25 µg/mL; in the assay on C. neoformans ATCC 90113 (setting [2]), over 50 µg/mL; with C. neoformans ATCC 36556 (setting [4]), 12.5 µg/mL; in the assay on C. neoformans ATCC 36556 (setting [5]), 50 µg/mL. Besides, in the assay with C. neoformans ATCC 36556 (setting [3]), the “ATCC36556 MIC-2” value turned out to be 13 µg/mL. The “C. neoformans growth inhibition (in words)” value with C. neoformans ATCC 36556 is “inhibit C. neoformans growth”. Besides, the “ATCC36556 MIC-0” value with C. neoformans ATCC 36556 (setting [6]) was found to be 25 µg/mL.

With `CN1C[C@H](C(=O)Nc2cccc(C(F)(F)F)c2)C[C@@H]2c3cccc4c3[C@H](C[C@H]21)CN4C(=O)OC(C)(C)C` [NGx03], the MIC with C. neoformans ATCC 90113 (setting [1]) was over 50 µg/mL; in the assay on C. neoformans ATCC 90113 (setting [2]), over 50 µg/mL; with C. neoformans ATCC 36556 (setting [4]), 3.13 µg/mL; with C. neoformans ATCC 36556 (setting [5]), 6.25 µg/mL. In addition, the “ATCC36556 MIC-2” value with C. neoformans ATCC 36556 (setting [3]) is 3.1 µg/mL. The “C. neoformans growth inhibition (in words)” value in the assay on C. neoformans ATCC 36556 is given as “inhibit C. neoformans growth; also recorded: scored anti-fungal activity”. For the same molecule, the “ATCC36556 MIC-0” value in the assay with C. neoformans ATCC 36556 (setting [6]) stood at 6.3 µg/mL.

Take `C[C@@H]1[C@H](O)[C@@H](C)/C=C/C=C/C=C/C=C/C=C/C=C/C=C/[C@H](O[C@@H]2O[C@H](C)[C@@H](O)[C@H](N)[C@@H]2O)C[C@@H]2O[C@](O)(C[C@@H](O)C[C@@H](O)[C@H](O)CC[C@@H](O)C[C@@H](O)CC(=O)O[C@H]1C)C[C@H](O)[C@H]2C(=O)O` [Amphotericin B, reference compound]: the minimal inhibitory concentration (MIC) in the assay on C. neoformans ATCC 90113 (setting [1]) is 0.8 µg/mL; in the assay with C. neoformans ATCC 90113 (setting [2]), 1.6 µg/mL; with C. neoformans ATCC 36556 (setting [4]), 0.2 µg/mL; in the assay on C. neoformans ATCC 36556 (setting [5]), 0.2 µg/mL. Besides, the “ATCC36556 MIC-2” value with C. neoformans ATCC 36556 (setting [3]) was 0.1 µg/mL. In the assay with C. neoformans ATCC 36556 (setting [6]), the “ATCC36556 MIC-0” value is 0.4 µg/mL.

Consider `COC(=O)[C@@H]1C[C@@H]2c3cc(N)cc4c3[C@H](C[C@H]2N(C)C1)CN4C(C)=O` [NGx10], for which the MIC with C. neoformans ATCC 90113 (setting [1]) is over 50 µg/mL; in the assay on C. neoformans ATCC 90113 (setting [2]), over 50 µg/mL; in the assay with C. neoformans ATCC 36556 (setting [4]), 25 µg/mL; in the assay with C. neoformans ATCC 36556 (setting [5]) it was over 50 µg/mL.

Take `COC(=O)[C@@H]1C[C@@H]2c3cc([N+](=O)[O-])cc4c3[C@H](C[C@H]2N(C)C1)CN4C(=O)OCC(Cl)(Cl)Cl` [NGx09]: the minimum inhibitory concentration (MIC) with C. neoformans ATCC 90113 (setting [2]) and in the assay with C. neoformans ATCC 36556 (setting [5]) was over 50 µg/mL throughout. Besides, the “C. neoformans growth inhibition (in words)” value with C. neoformans ATCC 36556 is “inhibit C. neoformans growth”.

What is called MIC is the smallest concentration in the dilution series that meets the test's criterion for growth inhibition.

These data come from PMC5147771, “High-Resolution Genetics Identifies the Lipid Transfer Protein Sec14p as Target for Antifungal Ergolines” (PLoS Genetics, 2016).
